Data on 2 compounds can be found in patent US10829493B2, “Compositions and methods for treating KIT- and PDGFRA-mediated diseases” (Blueprint Medicines Corporation, priority 2019, dated 2020).

Series [1] in a line: Monkey brain to plasma ratio (Kp, Kpuu) after iv bolus and 2-hour iv infusion. Type of series: in vivo. On the procedure:
A single IV bolus dose followed by a 2-hour iv infusion of the compound was administered to the monkey (3 monkeys/compound). Blood was collected from a femoral vein predose, right after the bolus administration and at the end of the infusion. The monkey was euthanized after the infusion and brain tissue was collected. Toxicokinetic evaluation of plasma (obtained by centrifugation of blood) and brain (homogenized in a buffer) was conducted to obtain brain to plasma ratio (Kp) of the compound. Kpuu was calculated by taking into consideration the fu,plasma and fu,brain as discussed above.

Another series concerns UT-7 cells. Put plainly: UT-7 cell proliferation with SCF stimulation as a measure of wild-type KIT activity (CellTiter-Glo). Format: cell-based, human. Conditions: Homo sapiens, UT7, 72 h, SCF-stimulated UT-7 cell proliferation. The source says:
UT-7 Cell Proliferation with SCF Stimulation Assay as a Measure of Wild-Type KIT Activity
UT-7 cells are human megakaryoblastic leukemia cell lines that can be grown in culture with dependence on granulocyte macrophage colony stimulating factor (GM-CSF) or stem cell factor (SCF). UT-7 cells respond to SCF stimulation by activation of the KIT receptor tyrosine kinase and subsequent downstream signaling that can support cell growth and proliferation (Kuriu et al, 1999; Komatsu et al, 1991; Sasaki et al, 1995). Test compounds were assayed for their ability to inhibit SCF-stimulated proliferation of UT-7 cells.
Inhibition of SCF-stimulated UT-7 cell proliferation was assessed using the CellTiter-Glo assay that quantifies the amount of adenosine triphosphate (ATP) present, which is a readout of metabolically active cells and is directly proportional to the number of viable cells in culture. The ability of test compounds to inhibit SCF-stimulated UT-7 cell proliferation was determined using a 10-point dose curve ranging from 25 μM to 95.4 pM of test compound.
UT-7 cells were maintained in IMDM supplemented with 10% FBS, 5 ng/mL GM-CSF and 100 units/mL Penicillin-Streptomycin and grown in a 37° C. humidified tissue culture incubator. UT-7 cells were washed once with serum free, GM-CSF free IMDM. Cells were then resuspended in IMDM containing 4% FBS and 50 ng/mL SCF and seeded at 2500 cells per well in a volume of 22 μL in a 384-well microplate. A 10-point dose concentration series of test compounds (25.0 μM to 95.4 pM) were then added to the cells in a volume of 3.1 μL to each well (0.25% DMSO final concentration) and placed in a tissue culture incubator (5% CO2, 37° C.) for 72 hours. After 3-days with test compound, CellTiter-Glo reagent was prepared fresh and 25 μL of reagent was added to each well. The plate was mixed by shaking for 10 minutes at RT at 300 rpm on a plate shaker. The plate was read on an EnVision plate reader using the Ultra Sensitive Luminescence protocol for a 384-well plate.
A general note: Cellular ATP, detected with luciferase, serves as a proxy for viable cell number.

Another series concerns the target CYP2D6 (Homo sapiens (Human), UniProt P10635). Put plainly: CYP inhibition in human liver microsomes, CYP2D6 (dextromethorphan). Format: in vitro ADME. The settings on record: pooled human liver microsomes, substrate dextromethorphan. On the procedure: (§1) In vitro studies in human liver microsomes were run according the standard method. […] The samples were then analyzed by LC-MS/MS for the quantification of the probe substrate left after the reaction and the IC50 values were determined by non-linear regression. The substrates for CYP2C9, CYP2D6, CYP3A4 were diclofenac, dextromethorphan and midazolam/testosterone respectively.
(Liver microsomes are vesicles of endoplasmic reticulum, rich in cytochrome P450 enzymes.)

Series [2] is described as follows: Rat plasma protein binding, equilibrium dialysis. Type of series: in vitro ADME. The settings on record: 100% rat plasma, equilibrium dialysis 5 hours at 37° C.; for fraction unbound at 5 h, 10 μM: read-out: Fraction unbound fu,p, rat plasma. On the procedure: Rat plasma protein binding of 4 and 63 were evaluated in vitro using an equilibrium dialysis method. […] Samples from the donor and receiver sides were analyzed by LC-MS/MS. Plasma protein bound and unbound fractions were calculated using the following equations—d Fraction bound (fb)*(%)=100×([Donor]5h−[Receiver]5h)/[Donor]5h (Equation 1) Fraction unbound (fu),p*(%)=100−% Bound* (Equation 2) where: [Donor]5h is measured donor concentration at 5-hour; [Received]5h is measured receiver concentration at 5-hour; fb* is bound fraction determined from plasma; fu,p* is calculated unbound fraction for plasma. Warfarin and quinidine were used as positive controls.
(In general: In equilibrium dialysis only unbound substance equilibrates across the membrane.)

Series [3] in a line: Rat brain protein binding in rat brain slices. Format: in vitro ADME. Conditions: rat brain slices (300 um thick); 300 um thick rat brain slices (striatum area); read-out: fu,brain (rat brain slices). As for the experimental part: Alternatively, rat brain protein binding of compounds 4 and 63 was evaluated in vitro by employing 300 um thick rat brain slices (striatum area) in an incubation tray. The fu,brain of compounds 4 and 63 by this method was 0.329% and 0.057% respectively. In that case, the Kp,uu, brain of 4 and 63 are 0.028 and 0.044 respectively.

Series [4] can be described thus: Rat brain protein binding in brain homogenate, equilibrium dialysis. Type of series: in vitro ADME. Conditions: equilibrium dialysis 5 hours at 37° C., read-out: fu,brain (brain homogenate). On the procedure: Similarly, rat brain protein binding of 4 and 63 were also evaluated in vitro using equilibrium dialysis method. 1 μM of the compound was assessed in brain homogenate in a dialysis block for 5 hours at 37° C. Samples from the donor and receiver sides were analyzed by LC-MS/MS. Brain protein bound and unbound fractions were calculated using the equations mentions above (Equations 1 and 2). Due to extensive protein binding, 4 was diluted further 4× for the brain homogenate measurement. The fu,brain of 4 and 63 were 0.29% and 0.1% respectively.

The next series deals with CYP2C9 (Homo sapiens (Human), UniProt P11712). Put plainly: CYP inhibition in human liver microsomes, CYP2C9 (diclofenac). Type of series: in vitro ADME. The settings on record: pooled human liver microsomes, substrate diclofenac. As for the experimental part:
as §1

The nature of series [5]: Brain penetration in rats, brain to plasma ratios (Kp,brain, Kpuu,brain). The settings on record: for concentration at 24 h / Kp uu at 24 h: intravenous. Type of series: in vivo, Sprague-Dawley rats. The text has this:
To understand the brain penetration, brain to plasma ratios of the compounds were obtained in Sprague-Dawley (SD) rats. In vivo equilibrium distribution between blood and brain in preclinical species such as rats is a commonly used parameter to evaluate brain penetration. Kp,brain is the ratio of concentrations in brain and blood (Cbrain/Cplasma) The compound's passive diffusion characteristics, its affinity for membrane transporters at the blood-brain barrier (BBB), and the relative drug binding affinity differences between the plasma proteins and brain tissue influence the Kp,brain.
The animals received IV infusion of 1 mg/kg/hr of the compound over 24 hours via jugular vein cannulation. At 24 hours, blood was collected via tail vein bleeding or cardiac puncture (under anesthesia) and centrifuged to obtain plasma samples. Brain tissues were collected and homogenized with phosphate-buffered saline (PBS). The concentrations of the compounds were obtained in the plasma and brain homogenates by LC-MS/MS analysis.

Setting [6] is: Sprague-Dawley, rat, brain, 1 mg/kg/hr, individual rats (Rat 1-3), IV infusion 1 mg/kg/hr over 24 hours, at 24 hours, read-out: Brain Concentration.
Setting [7] is: Sprague-Dawley, rat, brain, 1 mg/kg/hr, mean of 3 rats, IV infusion 1 mg/kg/hr over 24 hours, at 24 hours, read-out: Brain Concentration (ng/mL), Mean.
The mark [8] stands for this setting: Sprague-Dawley, rat, brain, 1 mg/kg/hr, rat, from total mean brain concentration and fu,brain (homogenate), read-out: Unbound concentration, Brain.
Setting [9] is: Sprague-Dawley, rat, plasma, 1 mg/kg/hr, individual rats (Rat 1-3), IV infusion 1 mg/kg/hr over 24 hours, at 24 hours, read-out: Plasma Concentration.
Setting [10] is: Sprague-Dawley, rat, plasma, 1 mg/kg/hr, mean of 3 rats, IV infusion 1 mg/kg/hr over 24 hours, at 24 hours, read-out: Plasma Concentration (ng/mL), Mean.
The mark [11] stands for this setting: Sprague-Dawley, rat, plasma, 1 mg/kg/hr, rat, from total mean plasma concentration and fu,p, read-out: Unbound concentration, Plasma.
Where [12] appears, read: individual rats (Rat 1-3), IV infusion 1 mg/kg/hr over 24 hours, at 24 hours.
Where [13] appears, read: mean of 3 rats, IV infusion 1 mg/kg/hr over 24 hours, at 24 hours.
[14] abbreviates: rat, unbound brain to plasma ratio, fu,brain from brain homogenate.

“And” between values parts separate entries of the source, which are not always exact repeats. Identical values can stand only once. Like-named read-outs stand apart in the source and are kept apart here. Some results are limits rather than exact numbers.

CYP2C9, sequence (P11712 whole entry): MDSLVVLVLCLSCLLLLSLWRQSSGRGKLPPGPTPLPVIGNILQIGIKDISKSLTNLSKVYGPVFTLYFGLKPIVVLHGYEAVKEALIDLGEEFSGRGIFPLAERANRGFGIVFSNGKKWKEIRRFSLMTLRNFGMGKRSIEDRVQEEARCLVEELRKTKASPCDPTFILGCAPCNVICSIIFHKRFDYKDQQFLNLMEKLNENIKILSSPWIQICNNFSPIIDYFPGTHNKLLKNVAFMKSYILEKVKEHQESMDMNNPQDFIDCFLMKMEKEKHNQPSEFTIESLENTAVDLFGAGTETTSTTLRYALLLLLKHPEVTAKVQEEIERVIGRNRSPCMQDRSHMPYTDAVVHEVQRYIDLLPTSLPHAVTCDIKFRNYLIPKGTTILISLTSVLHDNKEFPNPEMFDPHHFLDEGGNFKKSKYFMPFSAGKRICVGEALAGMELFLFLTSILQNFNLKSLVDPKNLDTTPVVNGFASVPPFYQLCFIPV
CYP2D6, sequence (P10635 whole entry): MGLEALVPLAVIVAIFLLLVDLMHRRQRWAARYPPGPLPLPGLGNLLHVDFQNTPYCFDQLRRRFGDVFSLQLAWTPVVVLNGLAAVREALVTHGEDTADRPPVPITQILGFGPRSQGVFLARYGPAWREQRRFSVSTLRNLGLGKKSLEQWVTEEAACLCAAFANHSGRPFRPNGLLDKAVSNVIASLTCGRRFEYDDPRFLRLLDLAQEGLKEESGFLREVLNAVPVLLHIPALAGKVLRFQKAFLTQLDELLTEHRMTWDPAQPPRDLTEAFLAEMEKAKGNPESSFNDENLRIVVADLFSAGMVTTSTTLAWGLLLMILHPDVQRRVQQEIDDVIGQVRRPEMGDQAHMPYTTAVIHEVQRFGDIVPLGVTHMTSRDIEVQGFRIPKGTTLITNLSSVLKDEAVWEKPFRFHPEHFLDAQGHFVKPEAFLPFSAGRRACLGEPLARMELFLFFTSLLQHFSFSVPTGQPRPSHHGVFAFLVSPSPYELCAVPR

On to `C[C@](N)(c1ccc(F)cc1)c1cnc(N2CCN(c3ncnn4cc(-c5cnn(CCO)c5)cc34)CC2)nc1` [Compound 4, (S)-2-(4-(4-(4-(5-(1-amino-1-(4-fluorophenyl)ethyl)pyrimidin-2-yl)piperazin-1-yl)pyrrolo[2,1-f][1,2,4]triazin-6-yl)-1H-pyrazol-1-yl)ethanol], for which the “Kp (Brain:Plasma)” value in series [1] (IV bolus followed by 2-hour iv infusion) was 0.09. Further, the Kpuu in series [1] (calculated with fu,plasma and fu,brain) is 0.01. Besides, the IC50 in the series with UT-7 cells was under 90 nM; on CYP2D6, 10 µM; at CYP2C9 it was 7.13 µM. Besides, the “Fraction bound (fb), rat plasma” value in series [2] is reported as 97.92%. In addition, in series [2], the fraction unbound at 5 h, 10 μM was found to be 0.0208. In addition, the fraction unbound in series [3] is 0.00329. Also, in series [4], the fraction unbound at 5 h, 1 μM was found to be 0.0029. Also, the concentration at 24 h in series [5] (setting [6]) was determined as 152 ng/mL; in series [5] (setting [7]), 183 ng/mL; in series [5] (setting [8]), 0.53 ng/mL; in series [5] (setting [9]), 859 ng/mL; in series [5] (setting [10]), 1050 ng/mL; in series [5] (setting [11]) it was 21.9 ng/mL. In series [5] (setting [12]), the “Brain Concentration” value is 188 ng/mL and 208 ng/mL. Moreover, the “Kp, brain” value in series [5] (setting [12]) is 0.177 and 0.168 and 0.174. For the same compound, in series [5] (setting [12]), the “Plasma Concentration” value is 1120 ng/mL and 1180 ng/mL. Also, in series [5] (setting [13]), the “Kp, brain, Mean” value was 0.17 and 0.174. In addition, the “Kp,uu, brain (brain slice method)” value in series [5] (rat, fu,brain from brain slices) was determined as 0.028. Moreover, the “Kpuu,brain” value in series [5] (setting [14]) is on record as 0.024.

For the compound `CCn1cc(-c2cc3c(N4CCN(c5ncc([C@@](C)(N)c6ccc(F)cc6)cn5)CC4)ncnn3c2)cn1` [Compound 63, reference compound], the Kp at 2 h in series [1] (brain, IV bolus followed by 2-hour iv infusion) is 1.86. Further, the Kp uu at 2 h in series [1] (intravenous, calculated with fu,plasma and fu,brain) was 0.92. In the series on UT-7 cells, the IC50 was 150 to 200 nM. For the same compound, the “Fraction bound (fb), rat plasma” value in series [2] was 99.8%. In series [2], the fraction unbound at 5 h, 10 μM is 0.002. Further, the fraction unbound in series [3] worked out at 0.00057. Further, the fraction unbound at 5 h, 1 μM in series [4] came to 0.001. The concentration at 24 h amounted to 1920 ng/mL in series [5] (setting [6]); 1700 ng/mL in series [5] (setting [7]); 1.7 ng/mL in series [5] (setting [8]); 1140 ng/mL in series [5] (setting [9]); 1010 ng/mL in series [5] (setting [10]); 2.02 ng/mL in series [5] (setting [11]). In addition, the Kp uu at 24 h was found to be 0.044 in series [5] (Sprague-Dawley, rat, brain, 1 mg/kg/hr, rat, fu,brain from brain slices, read-out: Kp,uu, brain (brain slice method)) and 0.84 in series [5] (Sprague-Dawley, rat, brain, 1 mg/kg/hr, rat, unbound brain to plasma ratio, fu,brain from brain homogenate, read-out: Kpuu,brain). In series [5] (Sprague-Dawley, rat, brain, iv, 1 mg/kg/hr, mean of 3 rats, IV infusion 1 mg/kg/hr over 24 hours, at 24 hours, read-out: Kp, brain, Mean), the Kp at 24 h came to 1.8. In addition, the “Brain Concentration” value in series [5] (setting [12]) is 1890 ng/mL and 1300 ng/mL. In series [5] (setting [12]), the “Kp, brain” value is 1.68 and 2.40 and 1.18. Also, in series [5] (setting [12]), the “Plasma Concentration” value is 789 ng/mL and 1100 ng/mL. Also, in series [5] (setting [13]), the “Kp, brain, Mean” value came to 1.75. Further, the “Kpuu,brain” value in series [5] (setting [14]) was 0.84.

The IC50 is the midpoint of a concentration-inhibition curve. A word on the Kp: it is the ratio of the level in a tissue or fluid to that in plasma or blood.
